Measurements published in patent US20180136242A1 (Autotelic LLC, priority 2014, published 2018).

Columns and labels:
[1] = tested on: 8A10 anti-taxane IgG2a antibody; assay: Paclitaxel antibody cross-reactivity, IC50 towards taxanes (8A10); type: binding, mouse; details: antibody 8A10
From the text: (§1) The antibodies of the invention were generated by immunizing mice with either TAXOL® or baccatin conjugated to KLH. The antibodies are summarized as: 3C6 anti TAXOL® IgG2a,k, 3H5 anti-baccatin III IgG1, 8A10 anti-taxane IgG2a. Cross-reactivity profile of 3C6, 3H5, and 8A10 antibodies are shown by their IC50 values towards various taxanes in Table 1.

[2] = tested on: 3H5 anti-baccatin III IgG1 antibody; assay: Paclitaxel antibody cross-reactivity, IC50 towards taxanes (3H5); type: binding, mouse; details: antibody 3H5; read-out: IC50 towards taxane, 3H5
From the text: as §1

[3] = tested on: 3C6 anti TAXOL IgG2a,k antibody; assay: Paclitaxel antibody cross-reactivity, IC50 towards taxanes (3C6); type: binding, mouse; details: antibody 3C6; read-out: IC50 towards taxane, 3C6
From the text: as §1

BSA-paclitaxel [4] = target: T1, BSA-paclitaxel (Bos taurus, UniProt P02769); assay: Biacore T-200 SPR, antibody on the chip; type: binding; details: Biacore T-200, antibody on the chip
BSA-paclitaxel (BSA-Ag) = BSA-paclitaxel (BSA-Ag) (Bos taurus, UniProt P02769); assay: Biacore 3000 SPR kinetic analysis, antigen on the chip; type: binding; details: for Dissociation rate constant (kd) / ka: 25° C.
Protocol: In this example, a method for determining antibody properties is described. The methods were carried out by Precision Antibody, Inc. (Columbia, Md.) using a Biacore Assay.
Binding experiments were performed on a Biacore 3000 instrument (GE, Pittsburgh, Pa.) at 25° C. Approximately 13,000 RU of anti-BSA ab (Life Technologies, A11133, lot 1637270) was directly immobilized on flow cell 2 of CM5 chip by amine coupling (EDC/NHS). 110-120 RU of BSA-paclitaxel (BSA-Ag) was captured. Flow cell 1 was treated the same way but without the ligand and used as a blank surface for reference subtraction. The unoccupied sites were blocked with 1 M ethanol amine. Analytes Ab 1 (8A10) and Ab2 (3C6) were flowed over the chip at variable concentrations. Binding of antigen to the antibodies was monitored in real time to obtain on (ka) and off (kd) rates. The equilibrium constant (KD) was calculated from the observed ka and kd.
Full kinetic analysis was performed using analyte concentrations as indicated with 2-fold serial dilutions. The starting concentration was 200 nM, followed by 100, 50, 25, 12.5, and 0 nM. The 100 nM concentration was run in duplicates to confirm the reproducibility of the assay.
The assay buffer was 10 mM HEPES buffer (pH 7.4), 150 mM NaCl, 3 mM EDTA, 0.05% P20 (polyoxyethylenesorbitan). The regeneration buffer was 10 mM Glycine buffer (pH 2.0). The conjugation buffer was 10 mM sodium acetate buffer (pH 5.0). The flow rate used for capturing the ligand was 1 μL/min. The flow rate for kinetics analysis was 50 μL/min.
Chi square (χ^2) analysis was carried out between the actual sensorgram and the sensorgram generated from the BlAnalysis software to determine the accuracy of the analysis. A χ^2 value within 1-2 is considered significant (accurate) and below 1 is highly significant (highly accurate).

BSA-paclitaxel antigen = BSA-paclitaxel antigen (Bos taurus, UniProt P02769); assay: Direct binding ELISA of intact IgGs to BSA-paclitaxel antigen (FIG. 4); details: read-out: apparent Kd
Protocol: FIG. 4 is a graph illustrating direct binding of intact IgGs (8A10 and 3C6) of the invention to a BSA-paclitaxel antigen on an ELISA.
Antibody affinity. 50 μL of BSA-paclitaxel antigen at a concentration of 3.5 μg/mL in 1× PBS was bound to a plate and incubated at 4° C. overnight. The plate was washed four ties with PBS/0.05% Tween 20. The plate was blocked for 2 hours with 1% BSA in PBS/0.05% Tween 20 at room temperature. The plate was washed four ties with PBS/0.05% Tween 20. 50 μL of antibody sample (8A10 and 3C6) was bound (start at 300 nM and titer down by 3s). The plate was washed four times with PBS/0.05% Tween 20. 50 μL of goat anti mIgG horseradish peroxidase (1:5000 dilution) was bound and then 50 μL of substrate solution TMB was added and the color allowed to develop. The reaction was stopped with 50 μL 1M HCl and the optical density was read at 450 nm.

BSA-paclitaxel [5] = target: T1, BSA-paclitaxel; assay: Biacore 3000 SPR, antibody on the chip; type: binding; details: Biacore 3000, antibody on the chip (3C6: single point)
[6] = BSA-Ag (110RU) ligand, full kinetic analysis
[7] = BSA-Ag (110RU) ligand, calculated from ka and kd
[8] = Biacore 3000, antigen on the chip

T1 sequence (P02769 25-607): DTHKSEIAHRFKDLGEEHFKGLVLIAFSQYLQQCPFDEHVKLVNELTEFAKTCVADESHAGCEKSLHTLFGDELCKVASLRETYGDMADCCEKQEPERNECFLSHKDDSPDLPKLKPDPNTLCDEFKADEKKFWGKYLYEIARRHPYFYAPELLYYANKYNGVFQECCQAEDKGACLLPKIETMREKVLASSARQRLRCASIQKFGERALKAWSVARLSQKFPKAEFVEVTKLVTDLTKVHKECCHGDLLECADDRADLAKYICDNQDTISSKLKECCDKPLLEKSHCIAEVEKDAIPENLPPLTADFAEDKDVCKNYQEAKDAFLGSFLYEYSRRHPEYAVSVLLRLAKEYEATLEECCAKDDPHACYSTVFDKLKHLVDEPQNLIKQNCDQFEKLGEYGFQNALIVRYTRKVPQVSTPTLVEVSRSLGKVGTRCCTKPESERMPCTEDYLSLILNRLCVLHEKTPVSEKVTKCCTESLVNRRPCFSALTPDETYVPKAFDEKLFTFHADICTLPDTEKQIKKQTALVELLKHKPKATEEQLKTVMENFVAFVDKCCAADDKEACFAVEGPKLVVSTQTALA
BSA-paclitaxel (BSA-Ag), sequence (P02769 25-607): as above
BSA-paclitaxel antigen, sequence (P02769 25-607): as above

Molecule	IC50 [1] [nM]	IC50 [2] [nM]	IC50 [3] [nM]	also measured
CC(=O)O[C@@]12CO[C@@H]1C[C@H](O)[C@@]1(C)C(=O)[C@H](O)C3=C(C)[C@@H](O)C[C@@](O)([C@@H](OC(=O)c4ccccc4)[C@H]21)C3(C)C [10-deacetylbaccatin III]	21	230	> 551	
CC(=O)O[C@@]12CO[C@@H]1C[C@H](O)[C@@]1(C)C(=O)[C@H](O)C3=C(C)[C@@H](OC(=O)[C@H](O)[C@@H](NC(=O)c4ccccc4)c4ccccc4)C[C@@](O)([C@@H](OC(=O)c4ccccc4)[C@H]21)C3(C)C [7-epi-10-deacetyltaxol]	15	> 333	25	
CC(=O)O[C@H]1C(=O)[C@]2(C)[C@H](O)C[C@H]3OC[C@@]3(OC(C)=O)[C@H]2[C@H](OC(=O)c2ccccc2)[C@]2(O)C[C@H](O)C(C)=C1C2(C)C [baccatin V]	10	10	> 460	
CC(=O)O[C@H]1C(=O)[C@@]2(C)[C@H]([C@H](OC(=O)c3ccc(C(F)(F)F)cc3)[C@]3(O)C[C@H](OC(=O)[C@H](O)[C@@H](NC(=O)c4ccccc4)c4ccccc4)C(C)=C1C3(C)C)[C@]1(OC(C)=O)CO[C@@H]1C[C@@H]2O [2-debenzoyl-2-(p-trifluoromethylbenzoyl)taxol]	> 293	> 293	> 293	
CC(=O)O[C@@]12CO[C@@H]1C[C@@H](O)[C@@]1(C)C(=O)[C@H](O)C3=C(C)[C@@H](O)C[C@@](O)([C@@H](OC(=O)c4ccccc4)[C@H]21)C3(C)C [7-epi-10-deacetylbaccatin III]	27	150	> 469	
CC(=O)O[C@H]1C(=O)[C@@]2(C)[C@H]([C@H](OC(=O)c3ccccc3)[C@]3(O)C[C@H](OC(=O)[C@H](O)[C@@H](NC(=O)c4ccccc4)c4ccccc4)C(C)=C1C3(C)C)[C@]1(OC(C)=O)CO[C@@H]1C[C@@H]2O [paclitaxel (TAXOL ®), paclitaxel]	7	> 316	10	
CC(=O)O[C@H]1C(=O)[C@@]2(C)[C@H]([C@H](OC(=O)c3ccccc3)[C@]3(O)C[C@H](OC(=O)[C@H](O)[C@@H](NC(=O)c4ccccc4)c4ccccc4)C(C)=C1C3(C)C)[C@]1(OC(C)=O)CO[C@@H]1C[C@@H]2O [7-epi-taxol]	50	> 316	80	
C/C=C(\C)C(=O)N[C@@H](c1ccccc1)[C@@H](O)C(=O)O[C@H]1C[C@@]2(O)[C@@H](OC(=O)c3ccccc3)[C@@H]3[C@]4(OC(C)=O)CO[C@@H]4C[C@H](O)[C@@]3(C)C(=O)[C@H](OC(C)=O)C(=C1C)C2(C)C [cephalomannine]	8	> 325	220	
CC(=O)O[C@@]12CO[C@@H]1C[C@H](O[C@@H]1OC[C@@H](O)[C@H](O)[C@H]1O)[C@@]1(C)C(=O)[C@H](O)C3=C(C)[C@@H](OC(=O)[C@H](O)[C@@H](NC(=O)c4ccccc4)c4ccccc4)C[C@@](O)([C@@H](OC(=O)c4ccccc4)[C@H]21)C3(C)C [7-xylosyl-10-deacetyltaxol]	17	> 286	30	
CC(=O)O[C@@]12CO[C@@H]1C[C@H](O)[C@@]1(C)C(=O)[C@H](O)C3=C(C)[C@@H](OC(=O)[C@H](O)[C@@H](NC(=O)c4ccccc4)c4ccccc4)C[C@@](O)([C@@H](OC(=O)c4ccccc4)[C@H]21)C3(C)C [10-deacetyltaxol]	10	> 333	15	
CC(=O)OC[C@@]1(O)[C@H]2[C@H](OC(=O)c3ccccc3)[C@]3(O)C[C@H](OC(=O)[C@H](O)[C@@H](NC(=O)c4ccccc4)c4ccccc4)C(C)=C([C@@H](OC(C)=O)C(=O)[C@]2(C)[C@@H](O)C[C@@H]1O)C3(C)C [20-acetoxy-4-deacetyl-5-epi-20,O-secotaxol]	> 293	> 310	> 310	
CC(=O)O[C@H]1C(=O)[C@@]2(C)[C@H]([C@H](OC(=O)c3ccccc3)[C@]3(O)C[C@H](O)C(C)=C1C3(C)C)[C@]1(OC(C)=O)CO[C@@H]1C[C@@H]2O [baccatin III]	12	10	> 511	
3C6 (antibody, V domains shown) VH: EVQLQESGPSLVKPSQTLSLTCSVTGDSITSGYWNWIRKFPGNRLEYMGYISYSGSTYYNPSLKSRISITRDTSKNQYYLHLTSVTTEDTATYYCAQGDGAYWGQGTTLTVSS VL: DVVMTQTPLSLPVSLGDQASISCRSRQSLVHSNGNTYLHWYLQKPGQSPKLLIYKVSNRFSGVPDRFSGSGSGTEFTLEISRVEAEDLGVYFCSQSTHVPPTFGGGTKLEIK				Kd (BSA-paclitaxel [4]): 12 nM; Off-rate (BSA-paclitaxel [4]): 2.2 × 10^−4; On-rate (BSA-paclitaxel [4]): 1.8 × 10^4; Rmax (BSA-paclitaxel [4]): 112; Dissociation rate constant (kd) (BSA-paclitaxel (BSA-Ag); [6]): 0.000967 s⁻¹; ka (BSA-paclitaxel (BSA-Ag); [6]): 20500 M⁻¹ s⁻¹; Kd (BSA-paclitaxel (BSA-Ag); [7]): 47.2 nM; KA (BSA-paclitaxel (BSA-Ag); [6]): 2.12e+07 M⁻¹; Rmax (BSA-paclitaxel (BSA-Ag); [6]): 15.6; Kd (BSA-paclitaxel (BSA-Ag); [8]): 47 nM; Off-rate (BSA-paclitaxel (BSA-Ag); [8]): 9.7 × 10^−4; On-rate (BSA-paclitaxel (BSA-Ag); [8]): 2.1 × 10^4; Rmax (BSA-paclitaxel (BSA-Ag); [8]): 15.6; Kd (BSA-paclitaxel antigen): ~10 nM; Kd (BSA-paclitaxel [5]): 10 nM; Off-rate (BSA-paclitaxel [5]): 2.9 × 10^−4; On-rate (BSA-paclitaxel [5]): 2.8 × 10^4; Rmax (BSA-paclitaxel [5]): 54.4
8A10: anti-taxane IgG2a mouse monoclonal antibody; variable regions SEQ ID NOS: 2 and 4 (antibody, V domains shown, mouse IgG2a constant regions) VL: DIVMTQSQKFMSITLGERVSITCKPSQNVGSAVTWWQQKPGQSPKLLIYSASNRYTGVPDRFTGSGSGTDFTLTISNVQSEDLADYFCQQYSSYPYTFGGGTKLEIKR VH: EVQLQQSGPELVKPGASVKISCKASGYTFTDSTMNWVKQSHGKSLEWIGEIDPNNGGTNYNQKFKGKATLTVDKSSSTAYMELRSLTSEDSAVYYCARGVWGQGTTLTVSS				Kd (BSA-paclitaxel [4]): 3.6 nM; Off-rate (BSA-paclitaxel [4]): 8.7 × 10^−4; On-rate (BSA-paclitaxel [4]): 2.4 × 10^5; Rmax (BSA-paclitaxel [4]): 8.6; Dissociation rate constant (kd) (BSA-paclitaxel (BSA-Ag); [6]): 0.000304 s⁻¹; ka (BSA-paclitaxel (BSA-Ag); [6]): 470000 M⁻¹ s⁻¹; Kd (BSA-paclitaxel (BSA-Ag); [7]): 0.645 nM; KA (BSA-paclitaxel (BSA-Ag); [6]): 1.55e+09 M⁻¹; Rmax (BSA-paclitaxel (BSA-Ag); [6]): 4.01; Kd (BSA-paclitaxel (BSA-Ag); [8]): 0.65 nM; Off-rate (BSA-paclitaxel (BSA-Ag); [8]): 3.0 × 10^−4; On-rate (BSA-paclitaxel (BSA-Ag); [8]): 4.7 × 10^5; Rmax (BSA-paclitaxel (BSA-Ag); [8]): 4.0; Kd (BSA-paclitaxel antigen): ~10 nM; Kd (BSA-paclitaxel [5]): 1.3 nM; Off-rate (BSA-paclitaxel [5]): 2.0 × 10^−3; On-rate (BSA-paclitaxel [5]): 1.6 × 10^6; Rmax (BSA-paclitaxel [5]): 3.6
